Legend:
Type in all cases: cell-based, mouse
[1] = test system: TNF; experiment: TNF production in BMDCs, intracellular staining, flow cytometry; conditions: 1 mM TDMM 24 hours, LPS (1 ug/ml) 4 hours
Procedure: Intracellular staining was performed to assess TNF production.
(§1) Intracellular staining was performed to assess TNF (FIG. 3A) and IL-12 (FIG. 3B) production.
(§2) Briefly, bone marrow was harvested from femurs of mice and cultured for 7 days in the presence of DC-skewing cytokines, GM-CSF and IL-4. […] The pro-inflammatory cytokines, IL-6 and IL-12, were specifically queried. […] Immune cells communicate largely through the production of soluble factors including cytokines, and DCs detect these signals and determine their effector functions accordingly.
(§3) The inventors performed a series of assays where bone marrow derived macrophages (BMDMs), bone marrow derived dendritic cells (BMDCs), and splenic dendritic cells (splenic DCs), were exposed to a series of TDMMs, including indole, indole-3-acetate (I3AT), 5-hydroxyindole (5HI), and indole-3-pyruvate (I3P), as well as indole-3-carbinol (I3C; a plant derived compound) to be used for a positive control (1 mM for 24 hours). The BMDMs and BMDCs were stimulated with LPS for 4 hours and assayed at day 7 for expression of various pro-inflammatory cytokines. In a similar assay, the BMDMs and BMDCs were stimulated with LPS or CpG, respectively, for 15 minutes and assayed for pAKT and pERK signaling, which is a reflection of pro-inflammatory response.

[2] = test system: IL-12; experiment: IL-12 production in BMDCs, intracellular staining, flow cytometry; conditions: BMDCs, 1 mM TDMM 24 hours, LPS (1 ug/ml) 4 hours
Procedure: as §1, §2, §3

[3] = test system: Akt; experiment: phospho-Akt in BMDCs, flow cytometry; conditions: BMDCs, 1 mM TDMM 24 hours, CpG (5 uM) 15 minutes
Procedure: Flow cytometric analysis was performed on BMDCs conditioned with indole from day 3 of culture and subsequently stimulated with LPS (5 ug/ml) for the given times. Cells were stained for phospho-Akt and analyzed by flow cytometry.
Flow cytometric analysis was performed on BMDCs from WT or AhrKO mice cultured in the presence of indole (1 mM) from day 3. DCs were stimulated with LPS (5 ug/ml) for the given times and stained for phospho-Akt, which was detected by flow cytometry. Percentage of pAkt-positive DCs indicated. Representative data is from one of three independent experiments.
Another central mediator of cellular signaling is the serine/threonine kinase, Akt (also referred to as protein kinase B), which regulates cellular processes including metabolism, growth, proliferation, and survival. The Akt pathway is activated by numerous receptor tyrosine kinases, cytokine receptors, G-protein-coupled receptors, and other molecules which activate the lipid kinase PI3K and result in production of phosphatidylinositol (3,4,5)-trisphosphate (PIPS). This second messenger acts as a docking site at the plasma membrane for Akt where phosphorylation and activation occurs. Akt is located upstream of NF-kB and can induce NF-kB signaling via phosphorylation of IKKα and Tp12. The effect of indole on Akt phosphorylation was assessed to determine whether indole's inhibition of NF-kB might be a secondary effect due to modulation of an upstream target.
as §3

[4] = test system: Akt; experiment: phospho-Akt signaling in BMDMs; conditions: 1 mM TDMM 24 hours, LPS 1 ug/ml 15 minutes
Procedure: (§4) The PI3K/Akt and MAPK/Erk signaling pathways regulate many cellular processes including survival, apoptosis, growth, and cytokine production. […] Specifically, BMDMs were treated with indole (1 mM) or DMF control for 18 hours, then stimulated with LPS (10 ug/ml) or CpG (5 uM) for 30 minutes. Cells were stained for phospho-Akt or phospho-Erk and analyzed by flow cytometry.
as §3

[5] = test system: Erk; experiment: phospho-Erk signaling in BMDMs; conditions: 1 mM TDMM 24 hours, LPS 1 ug/ml 15 minutes
Procedure: as §4, §3

[6] = test system: Erk; experiment: pERK signaling in BMDCs; conditions: 1 mM TDMM 24 hours, CpG (5 uM) 15 minutes
Procedure: as §3

[7] = test system: Stat3; experiment: IL-6 induced pSTAT3 signaling in splenic DCs; conditions: for IL-6 induced pSTAT3 signaling in splenic DCs: TDMM 24 hours, 10 ng/ml IL-6 30 minutes; for IL-6 induced pSTAT3 expression, CD4+ DCs / IL-6 induced pSTAT3 expression, CD4− DCs: splenic DCs, 1 mM TDMM 24 hours, IL-6 (10 ng/ml) 30 minutes
Procedure: Briefly, flow cytometric analysis was performed on splenic DCs conditioned with the indicated TDMMs for 24 hours and then subsequently stimulated with 10 ng/ml IL-6 for 30 minutes.

[8] = test system: CCR9; experiment: CCR9 surface expression on BMDCs; conditions: BMDCs cultured from day 3 with indole (1 mM) or retinoic acid (1 μM), day 7
Procedure: (§5) FIGS. 12A and 12B graphically illustrate that indole induces CCR9 and B220 on DCs. BMDCs were cultured in the presence of indole (1 mM), retinoic acid (1 μM), or DMF solvent control from day 3. On day 7, DCs were surface stained for expression of CCR9 and B220 and analyzed by flow cytometry. […] Mean of three independent experiments. * indicates p<0.05 for one-way ANOVA followed by Dunnett's post-test.
Dendritic cell subsets bear numerous surface antigens that regulate their migration and localization. Because indole is produced in the gut and appears to induce anti-inflammatory properties in DCs (as described above), it was hypothesized that indole might affect migration and retention in mucosal tissues. Thus, expression of the gut homing marker, chemokine receptor CCR9 was investigated. […] Retinoic acid (RA) was included as a positive control. RA is present in murine plasma at approximately […] and is predicted to exist at higher concentrations in tissue microenvironments in vivo. Thus, 1 uM was used as a conservative estimate of relevant physiological concentration. Indole's effect was even more profound than that of retinoic acid, a known inducer of mucosal homing markers on T cells (see, e.g., Iwata M, et al. (2004) Retinoic Acid Imprints Gut-Homing Specificity on T Cells. Immunity 21(4):527-538). […]

[9] = test system: B220 (CD45R); experiment: B220 surface expression on BMDCs; conditions: BMDCs cultured from day 3 with indole (1 mM) or retinoic acid (1 μM)
Procedure: as §5
An indole-induced upregulation of the B220 (CD45R) antigen was also observed (FIGS. 12A and 12B), which is widely used to distinguish the plasmacytoid DC lineage and is believed to contribute to gut homing. However, more recently B220 has been reported to distinguish a DC subset more closely developmentally related to conventional rather than plasmacytoid DCs and a precursor to resident CD8+ and CD8− conventional DCs.

[10] = test system: naïve CD4+CD25− T cells; experiment: T cell activation in the presence of BMDC supernatant: Treg induction; conditions: T cells on α-CD3/α-CD28 plates, 72 hours
Procedure: Specifically, naïve CD4+CD25− T cells were FACS-sorted and plated in 96-well, α-CD3 and α-CD28-coated tissue culture plates in a volume of 100 ul cell culture media. […] T cells with DC supernatant were cultured for 72 hours in the presence or absence of exogenous TGF-β. Subsequently, cells were stained for the transcription factor Foxp3 and analyzed by flow cytometry.
Naïve CD4+CD25− T cells were FACS-sorted as described above and plated in 96-well, αCD3 and αCD28-coated tissue culture plates in a volume of 100 ul cell culture media. An equal volume of spent BMDC supernatant was added, in the presence or absence of exogenous TGF-β, and T cells were cultured for 72 hours. To generate supernatants, day 3-treated BMDCs were collected on day 7, washed extensively and plated in a 48-well cell culture plate at 5×10^5 cells per well in 500 ul fresh complete media for 24 hours in the presence or absence of 1 ug/ml LPS. Plates were then centrifuged and supernatants were collected, filtered, and stored at −20° C. until use.

[11] = test system: naïve CD4+CD25− T cells; experiment: DC-T cell co-culture without cell contact (Transwell): Treg induction; conditions: exogenous TGF-β added, 3 days
Procedure: Transwell tissue culture plates were used to perform co-cultures with a physical barrier between the two cell types. Naïve CD4+CD25− T cells were FACS-sorted and placed in the bottom of a 24-well Transwell cell culture plate with 0.4 uM polycarbonate membranes that had been coated with α-CD3 (5 ug/ml) and α-CD28 (2 ug/ml). TGF-β was added at the indicated concentrations. […] The T cell to DC ratio was 2:1, as in other co-culture experiments. After 3 days, T cells were stained for Foxp3 and analyzed by flow cytometry.
Naïve CD4+CD25− T cells were FACS-sorted and placed in the bottom of a 24-well Transwell cell culture plate with 0.4 uM polycarbonate membranes (Corning) that had been coated with 5 μg/mL αCD3 (BioXcell 145-2C11) and 2 μg/mL αCD28 (BioXcell 37.51). TGF-β was added at the indicated concentrations. The insert was placed in the well and washed, Day 3-treated BMDCs were added to the top chamber such that culture media was shared, but the cell types were kept physically separate. The T cell to DC ratio was 2:1, as in other co-culture experiments.

[12] = test system: CCR9; experiment: CCR9 induction on naïve T cells by conditioned DCs; conditions: no exogenous RA in the co-culture
Procedure: FIG. 18 graphically illustrates that indole-conditioned DCs induce CCR9 on naïve T cells upon activation. Naïve CD4+CD25− T cells from OT-II mice were co-cultured with OVA323-339 peptide-loaded BMDCs for 72 hours in the presence of RA as indicated. BMDCs were previously treated with indole, RA, or DMF from day 3. Following 3 days of co-culture, surface staining was performed for flow cytometric analysis.
Based on the observation that indole induces gut homing markers on developing DCs, it was queried whether indole-conditioned DCs could also confer gut homing markers upon naïve CD4+ T cells. The antigen-specific T cell activation model was used to address this question, and a titration of RA was included as a positive control to induce CCR9. […] Just 10 nM of RA enabled indole-DC co-cultures to achieve over 50% of T cells expressing CCR9 which was similar to RA-DC positive controls, whereas DMF-DC co-cultures with the same concentration of RA added achieved only 10% of CCR9+ T cells.
Naïve CD4+CD25− T cells of spleen and lymph nodes from OT-II mice were isolated by negative selection via column purification using the Naïve CD4+ T Cell Isolation Kit (Miltenyi Biotec). Naïve CD4+ T cells (>96% pure) were labeled with Cell Proliferation Dye efluor450 (eBioscience) following manufacturer's instructions then co-cultured with OVA peptide-loaded BMDCs at a ratio of 2:1 for 72 hours in a 96-well round-bottom tissue culture plate. BMDCs were previously treated with indole or RA from day 3. On day 7, DCs were washed extensively prior to being loaded with OVA323-339 peptide (10 ug/ml) for 1 hour at 37° C. BMDCs were then washed three times and plated with naïve CD4+ T cells. RA or TGFβ were added to co-cultures as indicated. Following 3 days of culture, cells were stained with antibodies to CD4, CCR9, and LPAM-1 (α4β7). Intracellular staining for Foxp3 was performed using a Foxp3 staining kit (eBioscience). The remaining CD4+ helper T cell lineages Th1, Th2, and Th17 were identified by their cytokine production. […]

[13] = test system: TNF; experiment: TNF production in BMDMs, intracellular staining, flow cytometry; conditions: BMDMs, 1 mM TDMM 24 hours, LPS 1 ug/ml 4 hours
Procedure: (§6) BMDMs were treated with indole or DMF control for 18 hours or 4 hours, followed by stimulation with LPS (2 ug/ml or 250 ng/ml) for 4 hours in the presence of Golgiplug. BMDMs were then stained for intracellular TNF or IL-12 and analyzed by flow cytometry.
(§7) First, pro-inflammatory cytokine production in macrophages was investigated. […] In the DC study described herein, DCs were typically conditioned with indole during their development from bone marrow precursors in order to mimic the proximity of DC progenitor cells to indole in the intestinal microenvironment during development. […] BMDMs were treated for 18 hours with indole, followed by a 4 hour stimulation with either a very high (2 ug/ml) or low (250 ng/ml) dose of LPS.
(§8) Additionally, to determine if recently arrived macrophage precursors might also be affected, BMDMs were next treated for just 4 hours with indole, followed by a […] stimulation with the same LPS concentrations.
(§9) To address the question of indole and AhR dependence in macrophages, experiments using BMDMs derived from AhR-knockout mice were run alongside wild-type littermate controls. Specifically, flow cytometric analysis of BMDMs was performed on WT or AhR-KO mice and treated with indole or DMF control for 18 hours. BMDMs were stimulated for 4 hours with LPS (50 ng/ml) in the presence of Golgiplug, then stained for intracellular TNF (left panels) and IL-12 (right panels).
as §3
(§10) Bone marrow was harvested as described above and cultured at a density of 1×10^6 cells in 10 ml complete media supplemented with 10 ng/ml M-CSF (Peprotech) in 100 mm×15 mm petri dishes. Media with cytokine was replenished on day 3. Adherent and semi-adherent cells were recovered on day 7, plated, and treated with indole prior to downstream experiments.

[14] = test system: IL-12; experiment: IL-12 production in BMDMs, intracellular staining, flow cytometry; conditions: BMDMs, 1 mM TDMM 24 hours, LPS 1 ug/ml 4 hours
Procedure: as §6, §7, §8, §9, §3, §10

Row | SMILES | TNF [1] | IL-12 [2] | pAKT [3] | pAKT [4] | pERK [5] | pERK [6] | IL-6 induced pSTAT3 signaling in splenic DCs [7] | IL-6 induced pSTAT3 expression, CD4+ DCs [7] | IL-6 induced pSTAT3 expression, CD4− DCs [7] | surface expression of CCR9 on conditioned DCs [8] | B220 (CD45R) expression on BMDCs [9] | Treg induction by supernatant of conditioned BMDCs relative to solvent control DCs [10] | Treg induction by conditioned DCs without cell contact over solvent controls [11] | induction of CCR9 on naïve T cells by conditioned BMDCs alone [12] | TNF [13] | IL-12 [14]
1 | Oc1ccc2[nH]ccc2c1 [5HI, 5-hydroxyindole] | reduction and ↓↓ | reduction and ↓ | reduced and ↓ | reduced and ↓ | reduced and ↓ | reduced and ↓ | inhibits | ↓ | ↓ |  |  |  |  |  |  | 
2 | CC1=C(/C=C/C(C)=C/C=C/C(C)=C/C(=O)O)C(C)(C)CCC1 [RA, all-trans retinoic acid, reference compound] |  |  |  |  |  |  |  |  |  | 22% | does not induce B220 | approximately 2 fold | 3 fold | sufficient |  | 
3 | OCc1c[nH]c2ccccc12 [I3C, indole-3-carbinol, reference compound] | ↓↓↓↓ | ↓↓↓ | ↓↓↓↓ | ↓↓ | ↓↓↓↓ | ↓↓↓↓ |  | ↓↓↓↓ | ↓↓↓↓ |  |  |  |  |  | ↓↓↓↓ | ↓↓↓↓
4 | O=C(O)Cc1c[nH]c2ccccc12 [I3AT, indole-3-acetate] | reduction and ↓ | reduction and ↓ | reduced and ↓ | No effect | No effect | reduced and ↓ | inhibits | ↓ | ↓ |  |  |  |  |  | No effect | reduction and ↓
5 | O=C(O)C(=O)Cc1c[nH]c2ccccc12 [I3P, indole-3-pyruvate] | reduction and ↓ | reduction and ↓ | reduced and ↓ | No effect | No effect | reduced and ↓ | inhibits | ↓ | ↓ |  |  |  |  |  |  | 
